Reference: PubChem BioAssay (NCI)
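48-hour exposure; five concentrations; linearly interpolated endpoints. The concentration for 50% growth inhibition is given as GI50. At the TGI there is no net growth.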

Experiments:
Assay in all cases: NCI anticancer screen, dose series, 48 h
786-0 renal = tested on: 786-0 renal
A498 renal = tested on: A498 renal
A549 NSCLC = tested on: A549 NSCLC
ACHN renal = tested on: ACHN renal
BT-549 breast = tested on: BT-549 breast
CAKI-1 renal = tested on: CAKI-1 renal
CCRF-CEM leukemia = tested on: CCRF-CEM leukemia
COLO 205 colon = tested on: COLO 205 colon
DU-145 prostate = tested on: DU-145 prostate
EKVX NSCLC = tested on: EKVX NSCLC
HCT-116 colon = tested on: HCT-116 colon
HCT-15 colon = tested on: HCT-15 colon
HL-60(TB) leukemia = tested on: HL-60(TB) leukemia
HOP-62 NSCLC = tested on: HOP-62 NSCLC
HOP-92 NSCLC = tested on: HOP-92 NSCLC
HS 578T breast = tested on: HS 578T breast
HT29 colon = tested on: HT29 colon
IGROV1 ovarian = tested on: IGROV1 ovarian
K-562 leukemia = tested on: K-562 leukemia
KM12 colon = tested on: KM12 colon
LOX IMVI melanoma = tested on: LOX IMVI melanoma
M14 melanoma = tested on: M14 melanoma
MALME-3M melanoma = tested on: MALME-3M melanoma
MCF7 breast = tested on: MCF7 breast
MDA-MB-231 breast = tested on: MDA-MB-231 breast
MDA-MB-435 = tested on: MDA-MB-435
MDA-N = tested on: MDA-N
MOLT-4 leukemia = tested on: MOLT-4 leukemia
NCI-H226 lung = tested on: NCI-H226 lung
NCI-H23 lung = tested on: NCI-H23 lung
NCI-H460 lung = tested on: NCI-H460 lung
NCI-H522 lung = tested on: NCI-H522 lung
NCI/ADR-RES ovarian = tested on: NCI/ADR-RES ovarian
OVCAR-3 ovarian = tested on: OVCAR-3 ovarian
OVCAR-4 ovarian = tested on: OVCAR-4 ovarian
OVCAR-5 ovarian = tested on: OVCAR-5 ovarian
OVCAR-8 ovarian = tested on: OVCAR-8 ovarian
PC-3 prostate = tested on: PC-3 prostate
RPMI-8226 leukemia = tested on: RPMI-8226 leukemia
RXF 393 renal = tested on: RXF 393 renal
SF-268 CNS = tested on: SF-268 CNS
SF-295 CNS = tested on: SF-295 CNS
SF-539 CNS = tested on: SF-539 CNS
SK-MEL-2 melanoma = tested on: SK-MEL-2 melanoma
SK-MEL-28 melanoma = tested on: SK-MEL-28 melanoma
SK-MEL-5 melanoma = tested on: SK-MEL-5 melanoma
SK-OV-3 ovarian = tested on: SK-OV-3 ovarian
SN12C renal = tested on: SN12C renal
SNB-19 CNS = tested on: SNB-19 CNS
SNB-75 CNS = tested on: SNB-75 CNS
SR leukemia = tested on: SR leukemia
SW-620 colon = tested on: SW-620 colon
T-47D breast = tested on: T-47D breast
TK-10 renal = tested on: TK-10 renal
U251 CNS = tested on: U251 CNS
UACC-257 melanoma = tested on: UACC-257 melanoma
UACC-62 melanoma = tested on: UACC-62 melanoma
UO-31 renal = tested on: UO-31 renal

O=C(O)c1cc[c]([Hg][S]c2ncnc3nc[nH]c23)cc1
GI50 (786-0 renal): 5.83 µM
TGI (786-0 renal): 21.9 µM
GI50 (A498 renal): > 35.3 µM
TGI (A498 renal): > 87.1 µM
GI50 (A549 NSCLC): 16.4 µM
TGI (A549 NSCLC): 33.7 µM
GI50 (ACHN renal): 11.6 µM
TGI (ACHN renal): 23.7 µM
GI50 (BT-549 breast): 8.12 µM
TGI (BT-549 breast): 21.6 µM
GI50 (CAKI-1 renal): 4.96 µM
TGI (CAKI-1 renal): 21.1 µM
GI50 (CCRF-CEM leukemia): 4.55 µM
TGI (CCRF-CEM leukemia): 21.8 µM
GI50 (COLO 205 colon): 12.4 µM
TGI (COLO 205 colon): 26.9 µM
GI50 (DU-145 prostate): 7.47 µM
TGI (DU-145 prostate): 25.1 µM
GI50 (EKVX NSCLC): 19.2 µM
TGI (EKVX NSCLC): 34.9 µM
GI50 (HCT-116 colon): 4.89 µM
TGI (HCT-116 colon): 22.3 µM
GI50 (HCT-15 colon): 11.2 µM
TGI (HCT-15 colon): 27.2 µM
GI50 (HL-60(TB) leukemia): 0.4 µM
TGI (HL-60(TB) leukemia): 13.4 µM
GI50 (HOP-62 NSCLC): 10.7 µM
TGI (HOP-62 NSCLC): 26.1 µM
GI50 (HOP-92 NSCLC): 2.21 µM
TGI (HOP-92 NSCLC): 23 µM
GI50 (HS 578T breast): 1.5 µM
TGI (HS 578T breast): 6.06 µM
GI50 (HT29 colon): 7.27 µM
TGI (HT29 colon): 21.7 µM
GI50 (IGROV1 ovarian): 9.25 µM
TGI (IGROV1 ovarian): 23.8 µM
GI50 (K-562 leukemia): 1.7 µM
TGI (K-562 leukemia): 15.7 µM
GI50 (KM12 colon): 14.3 µM
TGI (KM12 colon): > 50.1 µM
GI50 (LOX IMVI melanoma): 0.684 µM
TGI (LOX IMVI melanoma): 17.1 µM
GI50 (M14 melanoma): 2.18 µM
TGI (M14 melanoma): 14 µM
GI50 (MALME-3M melanoma): 3.35 µM
TGI (MALME-3M melanoma): 17.9 µM
GI50 (MCF7 breast): 2.6 µM
TGI (MCF7 breast): > 38.9 µM
GI50 (MDA-MB-231 breast): 6.59 µM
TGI (MDA-MB-231 breast): 21 µM
GI50 (MDA-MB-435): 3.81 µM
TGI (MDA-MB-435): 16.8 µM
GI50 (MDA-N): 4.84 µM
TGI (MDA-N): 20.3 µM
TGI (MOLT-4 leukemia): 15.3 µM
GI50 (NCI-H226 lung): > 39 µM
TGI (NCI-H226 lung): > 68 µM
GI50 (NCI-H23 lung): 15.5 µM
TGI (NCI-H23 lung): 34.8 µM
GI50 (NCI-H460 lung): 13.1 µM
TGI (NCI-H460 lung): 28.5 µM
GI50 (NCI-H522 lung): 1.08 µM
TGI (NCI-H522 lung): 8.24 µM
GI50 (NCI/ADR-RES ovarian): 3.75 µM
TGI (NCI/ADR-RES ovarian): 30.6 µM
GI50 (OVCAR-3 ovarian): 1.88 µM
TGI (OVCAR-3 ovarian): 19.9 µM
GI50 (OVCAR-4 ovarian): 10.3 µM
TGI (OVCAR-4 ovarian): 28.9 µM
GI50 (OVCAR-5 ovarian): 14.1 µM
TGI (OVCAR-5 ovarian): 29 µM
GI50 (OVCAR-8 ovarian): 4.44 µM
TGI (OVCAR-8 ovarian): 25.3 µM
GI50 (PC-3 prostate): 8.37 µM
TGI (PC-3 prostate): 23.5 µM
GI50 (RPMI-8226 leukemia): 4.91 µM
TGI (RPMI-8226 leukemia): 28.2 µM
GI50 (RXF 393 renal): 2.95 µM
TGI (RXF 393 renal): 18.8 µM
GI50 (SF-268 CNS): 5.15 µM
TGI (SF-268 CNS): 19 µM
GI50 (SF-295 CNS): 11.7 µM
TGI (SF-295 CNS): > 100 µM
GI50 (SF-539 CNS): 7.39 µM
TGI (SF-539 CNS): 25.6 µM
GI50 (SK-MEL-2 melanoma): 4.83 µM
TGI (SK-MEL-2 melanoma): 19.4 µM
GI50 (SK-MEL-28 melanoma): 17.4 µM
TGI (SK-MEL-28 melanoma): 32 µM
GI50 (SK-MEL-5 melanoma): 14.1 µM
TGI (SK-MEL-5 melanoma): 36.4 µM
GI50 (SK-OV-3 ovarian): 10.8 µM
TGI (SK-OV-3 ovarian): 23.2 µM
GI50 (SN12C renal): 17.5 µM
TGI (SN12C renal): 38.6 µM
GI50 (SNB-19 CNS): > 76.7 µM
TGI (SNB-19 CNS): > 100 µM
GI50 (SNB-75 CNS): 1.45 µM
TGI (SNB-75 CNS): 19.4 µM
GI50 (SR leukemia): 1.32 µM
TGI (SR leukemia): 7.16 µM
GI50 (SW-620 colon): 11.4 µM
TGI (SW-620 colon): 23.5 µM
GI50 (T-47D breast): 4.52 µM
TGI (T-47D breast): 36.7 µM
GI50 (TK-10 renal): 2.59 µM
TGI (TK-10 renal): 14.3 µM
GI50 (U251 CNS): 14.4 µM
TGI (U251 CNS): 28.2 µM
GI50 (UACC-257 melanoma): 10.4 µM
TGI (UACC-257 melanoma): 22.9 µM
GI50 (UACC-62 melanoma): 2.88 µM
TGI (UACC-62 melanoma): 15.4 µM
GI50 (UO-31 renal): 4.79 µM
TGI (UO-31 renal): 17 µM

COC(=O)C1=C(C(=O)OC)SC(=C2SC3=C(SC(=C4SCCS4)S3)S2)S1
TGI (786-0 renal): > 100 µM
TGI (A498 renal): > 100 µM
TGI (A549 NSCLC): > 100 µM
TGI (ACHN renal): > 100 µM
TGI (BT-549 breast): > 100 µM
TGI (CAKI-1 renal): > 100 µM
TGI (CCRF-CEM leukemia): > 100 µM
TGI (COLO 205 colon): > 100 µM
TGI (DU-145 prostate): > 100 µM
TGI (EKVX NSCLC): > 100 µM
TGI (HCT-116 colon): > 100 µM
TGI (HL-60(TB) leukemia): > 100 µM
TGI (HOP-62 NSCLC): > 100 µM
TGI (HOP-92 NSCLC): > 100 µM
TGI (HS 578T breast): > 100 µM
TGI (HT29 colon): > 100 µM
TGI (IGROV1 ovarian): > 100 µM
TGI (K-562 leukemia): > 100 µM
TGI (KM12 colon): > 100 µM
TGI (LOX IMVI melanoma): > 100 µM
TGI (M14 melanoma): > 100 µM
TGI (MALME-3M melanoma): > 100 µM
TGI (MCF7 breast): > 100 µM
TGI (MDA-MB-231 breast): > 100 µM
TGI (MDA-MB-435): > 100 µM
TGI (MDA-N): > 100 µM
TGI (MOLT-4 leukemia): > 100 µM
TGI (NCI-H226 lung): > 100 µM
TGI (NCI-H23 lung): > 100 µM
TGI (NCI-H522 lung): > 100 µM
TGI (NCI/ADR-RES ovarian): > 100 µM
TGI (OVCAR-5 ovarian): > 100 µM
TGI (OVCAR-8 ovarian): > 100 µM
TGI (PC-3 prostate): > 100 µM
TGI (RPMI-8226 leukemia): > 100 µM
TGI (RXF 393 renal): > 100 µM
TGI (SF-268 CNS): > 100 µM
TGI (SF-295 CNS): > 100 µM
TGI (SK-MEL-2 melanoma): > 100 µM
TGI (SK-MEL-28 melanoma): > 100 µM
TGI (SK-MEL-5 melanoma): > 100 µM
TGI (SK-OV-3 ovarian): > 100 µM
TGI (SN12C renal): > 100 µM
TGI (SNB-19 CNS): > 100 µM
TGI (SNB-75 CNS): 6.86 µM
TGI (SR leukemia): > 100 µM
TGI (SW-620 colon): > 100 µM
TGI (T-47D breast): > 100 µM
TGI (TK-10 renal): > 100 µM
TGI (U251 CNS): > 100 µM
TGI (UACC-257 melanoma): > 100 µM
TGI (UACC-62 melanoma): > 100 µM
TGI (UO-31 renal): > 100 µM
